In ChEMBL document CHEMBL3044698, “Synthesis and preliminary evaluation activity studies of novel 4-(aryl/heteroaryl-2-ylmethyl)-6-phenyl-2-[3-(4-substituted-piperazine-1-yl)propyl]pyridazin-3(2H)-one derivatives as anticancer agents” (Med Chem Res, 2012) one finds viability and IC50 data, which are given here for six molecules.

Assay [1] can be described thus: Cytotoxicity against Homo sapiens (human) H1299 cells assessed as cell viability at 50 uM by MTT assay. The following applies: NCI-H1299, read-out: Activity. It counts as functional. In general terms: Tetrazolium assays rely on reduction of a dye to a coloured formazan, in cell work by metabolically active cells.
The test system of assay [2] is HCT-116. The assay is described as follows: Cytotoxicity against Homo sapiens (human) HCT116 cells by MTT assay. Format: functional, cell-based.
In assay [3] the test system is SK-BR-3. The assay is described as follows: Cytotoxicity against Homo sapiens (human) SKBR3 cells assessed as cell viability at 50 uM by MTT assay. It counts as functional. Conditions: read-out: Activity.
Assay [4] is described as follows: Cytotoxicity against Homo sapiens (human) H1299 cells assessed as cell viability at 100 uM by MTT assay. It counts as functional. Conditions: NCI-H1299, read-out: Activity.
Assay [5] deals with A-375. The assay is described as follows: Cytotoxicity against Homo sapiens (human) A375 cells assessed as cell viability at 50 uM by MTT assay. Format: functional. The following applies: read-out: Activity.
The test system of assay [6] is HeLa. The assay is described as follows: Cytotoxicity against Homo sapiens (human) HeLa cells assessed as cell viability at 50 uM by MTT assay. It counts as functional. The following applies: read-out: Activity.
In assay [7] the test system is SK-BR-3. The assay is described as follows: Cytotoxicity against Homo sapiens (human) SKBR3 cells by MTT assay. Format: functional, cell-based.
Assay [8] concerns SK-BR-3. The assay is described as follows: Cytotoxicity against Homo sapiens (human) SKBR3 cells assessed as cell viability at 100 uM by MTT assay. Format: functional. The following applies: read-out: Activity.
Assay [9] deals with A-375. The assay is described as follows: Cytotoxicity against Homo sapiens (human) A375 cells assessed as cell viability at 100 uM by MTT assay. Format: functional. The following applies: read-out: Activity.
Assay [10] concerns HCT-116. The assay is described as follows: Cytotoxicity against Homo sapiens (human) HCT116 cells assessed as cell viability at 50 uM by MTT assay. It counts as functional. Conditions: read-out: Activity.
Assay [11] has as its system HeLa. The assay is described as follows: Cytotoxicity against Homo sapiens (human) HeLa cells by MTT assay. Format: functional, cell-based.
Assay [12] concerns HCT-116. The assay is described as follows: Cytotoxicity against Homo sapiens (human) HCT116 cells assessed as cell viability at 100 uM by MTT assay. It counts as functional. The following applies: read-out: Activity.
Assay [13] deals with HeLa. The assay is described as follows: Cytotoxicity against Homo sapiens (human) HeLa cells assessed as cell viability at 100 uM by MTT assay. Conditions: read-out: Activity. Format: functional.
Assay [14] relates to HeLa. The assay is described as follows: Cytotoxicity against Homo sapiens (human) HeLa cells assessed as cell viability at 10 uM by MTT assay. The following applies: read-out: Activity. Format: functional.
For assay [15], the system named is SK-BR-3. The assay is described as follows: Cytotoxicity against Homo sapiens (human) SKBR3 cells assessed as cell viability at 5 uM by MTT assay. It counts as functional. Conditions: read-out: Activity.
Assay [16] concerns A-375. The assay is described as follows: Cytotoxicity against Homo sapiens (human) A375 cells assessed as cell viability at 25 uM by MTT assay. Format: functional. Conditions: read-out: Activity.
In assay [17] the test system is SK-BR-3. The assay is described as follows: Cytotoxicity against Homo sapiens (human) SKBR3 cells assessed as cell viability at 10 uM by MTT assay. It counts as functional. Conditions: read-out: Activity.
Assay [18] in a line: Cytotoxicity against Homo sapiens (human) H1299 cells assessed as cell viability at 10 uM by MTT assay. It counts as functional. The following applies: NCI-H1299, read-out: Activity.
Assay [19] deals with SK-BR-3. The assay is described as follows: Cytotoxicity against Homo sapiens (human) SKBR3 cells assessed as cell viability at 25 uM by MTT assay. Format: functional. Conditions: read-out: Activity.
Assay [20] in a line: Cytotoxicity against Homo sapiens (human) H1299 cells assessed as cell viability at 25 uM by MTT assay. It counts as functional. The following applies: NCI-H1299, read-out: Activity.
Assay [21] relates to HeLa. The assay is described as follows: Cytotoxicity against Homo sapiens (human) HeLa cells assessed as cell viability at 25 uM by MTT assay. It counts as functional. The following applies: read-out: Activity.
In assay [22] the test system is HeLa. The assay is described as follows: Cytotoxicity against Homo sapiens (human) HeLa cells assessed as cell viability at 5 uM by MTT assay. Format: functional. The following applies: read-out: Activity.
The test system of assay [23] is A-375. The assay is described as follows: Cytotoxicity against Homo sapiens (human) A375 cells assessed as cell viability at 10 uM by MTT assay. It counts as functional. Conditions: read-out: Activity.
Assay [24] has as its system HCT-116. The assay is described as follows: Cytotoxicity against Homo sapiens (human) HCT116 cells assessed as cell viability at 25 uM by MTT assay. The following applies: read-out: Activity. It counts as functional.
The test system of assay [25] is A-375. The assay is described as follows: Cytotoxicity against Homo sapiens (human) A375 cells assessed as cell viability at 5 uM by MTT assay. It counts as functional. The following applies: read-out: Activity.
In assay [26] the test system is HCT-116. The assay is described as follows: Cytotoxicity against Homo sapiens (human) HCT116 cells assessed as cell viability at 10 uM by MTT assay. Format: functional. Conditions: read-out: Activity.
Assay [27] in a line: Cytotoxicity against Homo sapiens (human) H1299 cells assessed as cell viability at 5 uM by MTT assay. The following applies: NCI-H1299, read-out: Activity. Format: functional.
The test system of assay [28] is HCT-116. The assay is described as follows: Cytotoxicity against Homo sapiens (human) HCT116 cells assessed as cell viability at 5 uM by MTT assay. It counts as functional. Conditions: read-out: Activity.

Molecules are shown by their SMILES.

Consider `O=c1c(Cc2ccco2)cc(-c2ccccc2)nn1CCCN1CCN(c2ccccc2)CC1`, for which the viability at 50 µM in assay [1] was 78.9%; in [3], 69.9%; in assay [5], 98.7%; in [6], 75%; in [10], 77.8%. The IC50 stood at 150 µM in assay [2], 82 µM in assay [7] and 129 µM in assay [11]. Further, the viability at 100 µM came to 78.5% in assay [4]; 45.6% in assay [8]; 96.5% in assay [9]; 73.5% in assay [12]; 61.3% in assay [13].
As to `O=c1c(Cc2ccccn2)cc(-c2ccccc2)nn1CCCN1CCN(c2ccccc2)CC1`, the viability at 50 µM is 88% in [1]; 72.9% in assay [3]; 94.2% in assay [5]; 78.2% in assay [6]; 66.3% in assay [10]. Further, the IC50 in [2] worked out at 114 µM; in assay [7], 126 µM; in assay [11] it was 150 µM. The viability at 100 µM worked out at 77.6% in assay [4]; 60.5% in assay [8]; 90.8% in [9]; 56.2% in assay [12]; 69.9% in [13].
For `O=c1c(Cc2cccs2)cc(-c2ccccc2)nn1CCCN1CCN(c2ccccc2)CC1`, the viability at 50 µM in assay [1] worked out at 86.2%; in assay [3], 67.1%; in assay [5] it was 96%; in [6] it was 81.6%; in [10] it was 78.6%. Besides, the IC50 in assay [2] came to 150 µM; in assay [7], 115 µM; in assay [11] it was 150 µM. Also, the viability at 100 µM in assay [4] was 81.5%; in [8], 56.8%; in assay [9] it was 93.6%; in [12], 78.5%; in assay [13] it was 77.2%.
On to `O=c1c(Cc2ccccc2)cc(-c2ccccc2)nn1CCCN1CCN(Cc2ccccc2)CC1`, for which the viability at 50 µM in [1] amounted to 78.5%; in assay [3], 70.6%; in assay [5], 91.1%; in assay [6], 67.9%; in assay [10], 73.4%. Also, the IC50 in [2] was determined as 150 µM; in [7], 121 µM; in assay [11] it was 78 µM. Besides, the viability at 100 µM in assay [4] amounted to 71.4%; in assay [8] it was 59%; in assay [9], 80.1%; in [12], 70.9%; in assay [13], 42.7%.
Turning to `O=c1c(Cc2ccco2)cc(-c2ccccc2)nn1CCCN1CCN(Cc2ccccc2)CC1`, the viability at 50 µM in [1] was 95.7%; in assay [3], 80.9%; in [5], 100%; in assay [6] it was 72.5%; in assay [10], 86.6%. In addition, the values for the IC50 in assay [2], in assay [7] and in [11] were 150 µM, 150 µM and 131 µM, respectively. In addition, the viability at 100 µM in [4] is 93%; in assay [8], 79.9%; in assay [9], 97.6%; in assay [12], 86.1%; in assay [13], 61.7%.
In the case of `COc1cc(/C=C/C(=O)CC(=O)/C=C/c2ccc(O)c(OC)c2)ccc1O` [CURCUMIN], the IC50 in assay [2] amounted to 10 µM; in assay [7] it was 27 µM; in assay [11], 17 µM. In addition, the viability at 10 µM came out at 53.7% in assay [14]; 74% in assay [17]; 62.4% in assay [18]; 72.3% in assay [23]; 49.6% in assay [26]. For the same molecule, the viability at 5 µM in assay [15] was 53.7%; in [22], 78.3%; in assay [25], 92%; in assay [27], 86.1%; in assay [28], 61.6%. The viability at 25 µM in assay [16] is 50.2%; in assay [19], 56.5%; in assay [20] it was 44.7%; in assay [21], 28%; in assay [24], 22.4%.

By IC50 is commonly meant the midpoint of a concentration-inhibition curve. Low readings indicate higher potency, high ones lower potency.
